Experimental data reported in patent US12473289B2, “Heterocyclic compounds as delta-5 desaturase inhibitors and methods of use” (Amgen Inc., priority 2019, dated 2025).

These molecules were tested against Delta-5-Desaturase (D5D) (Homo sapiens (Human), UniProt O60427) (assay: In vitro measurement of Delta-5-Desaturase inhibitory activity using DGLA-CoA and Arachidonyl-CoA mass spectrometric assays). Settings: membrane preparations of D5D-overexpressing HEK293 6E cells; averaged over at least two independent runs.
Format: biochemical
Method in brief: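 Membranes from D5D-overexpressing HEK293 6E cells (10 μg/mL final) in Tris pH 7.5 with MgCl2, octyl glucoside and TCEP were mixed 1:1 with substrate solution (0.01 mM DGLA, 0.25 mM NADH, 0.25 mM ATP, 0.05 mM CoA) for 1 h at ambient temperature. RapidFire SPE-MS/MS MRM; IC50 by 4-parameter fit, ≥2 runs.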

Chain of Delta-5-Desaturase (D5D) (O60427 whole entry, species assumed): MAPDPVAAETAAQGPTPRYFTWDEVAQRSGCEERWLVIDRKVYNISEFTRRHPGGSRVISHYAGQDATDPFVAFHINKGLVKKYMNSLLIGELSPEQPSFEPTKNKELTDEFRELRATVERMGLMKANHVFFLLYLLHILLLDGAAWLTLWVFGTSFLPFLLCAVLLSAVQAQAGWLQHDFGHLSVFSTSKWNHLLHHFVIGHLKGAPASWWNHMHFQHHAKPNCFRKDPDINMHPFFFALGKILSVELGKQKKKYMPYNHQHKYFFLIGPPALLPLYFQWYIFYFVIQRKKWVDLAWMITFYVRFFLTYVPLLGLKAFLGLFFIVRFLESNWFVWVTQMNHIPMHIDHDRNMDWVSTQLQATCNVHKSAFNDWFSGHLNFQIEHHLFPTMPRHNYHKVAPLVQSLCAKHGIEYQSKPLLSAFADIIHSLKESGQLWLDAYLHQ

Row | Compound | IC50 [µM]
1 | COc1ccn2c(=O)c(-c3cn(CC(F)(F)C(F)(F)F)nn3)c(C(F)(F)F)nc2c1 [Example 53, 8-Methoxy-3-[1-(2,2,3,3,3-pentafluoropropyl)-1H-1,2,3-triazol-4-yl]-2-(trifluoromethyl)-4H-pyrido[1,2-a]pyrimidin-4-one] | 0.0447
2 | COc1ccn2c(=O)c(-c3cnn(CCCC(F)(F)F)c3)c(C(F)(F)F)nc2n1 [Example 1-38, 8-methoxy-3-(1-(4,4,4-trifluorobutyl)-1H-pyrazol-4-yl)-2-(trifluoromethyl)-4H-pyrimido[1,2-a]pyrimidin-4-one] | 0.18
3 | O=c1c(-c2ccc(OCC(F)(F)F)cc2)c(C(F)(F)F)nc2cc(C(F)(F)F)ccn12 [Example 4-1, 3-(4-(2,2,2-Trifluoroethoxy)phenyl)-2,8-bis(trifluoromethyl)-4H-pyrido[1,2-a]pyrimidin-4-one] | 5.22
4 | Cn1c(=O)c(F)cn2c(=O)c(-c3cnn(CC(F)(F)C(F)(F)F)c3)c(C(F)(F)F)nc12 [Example 63, 3-Fluoro-1-methyl-7-[1-(2,2,3,3,3-pentafluoropropyl)-1H-pyrazol-4-yl]-8-(trifluoromethyl)-1H,2H,6H-[1,3]diazino[1,2-a]pyrimidine-2,6-dione] | 0.0436
5 | N#Cc1ccn2c(=O)c(-c3cnn(CC(F)(F)C(F)(F)F)c3)c(CF)nc2c1 [Example 1-86, 2-(fluoromethyl)-4-oxo-3-(1-(2,2,3,3,3-pentafluoropropyl)-1H-pyrazol-4-yl)-4H-pyrido[1,2-a]pyrimidine-8-carbonitrile] | 0.134
6 | CN1CCn2c(nc(C(F)(F)F)c(-c3cnn(CC(F)(F)C(F)(F)F)c3)c2=O)C1 [Example 64, 8-Methyl-3-[1-(2,2,3,3,3-pentafluoropropyl)-1H-pyrazol-4-yl]-2-(trifluoromethyl)-4H,6H,7H,8H,9H-pyrimido[1,2-a]pyrazin-4-one] | 0.54

The remaining lines, values ahead:

Row | IC50 [µM] | Compound
7 | 0.0041 | O=c1c(-c2ccc(OCC(F)(F)F)cc2)c(C(F)(F)F)nc2cc(Cl)ccn12 [Example 2-7, 8-chloro-3-(4-(2,2,2-trifluoroethoxy)phenyl)-2-(trifluoromethyl)-4H-pyrido[1,2-a]pyrimidin-4-one]
8 | 0.105 | Cc1cnn2c(=O)c(-c3ccc(OCC(F)(F)F)cc3)c(C(F)(F)F)nc2c1 [Example 39-50, 8-methyl-3-[4-(2,2,2-trifluoroethoxy)phenyl]-2-(trifluoromethyl)-4H-pyrimido[1,2-b]pyridazin-4-one]
9 | > 67 | CN(C)Cc1ccc2nc(C(F)(F)F)c(-c3cnn(CC(F)(F)C(F)(F)F)c3)c(=O)n2c1 [Example 39-29, 7-[(dimethylamino)methyl]-3-[1-(2,2,3,3,3-pentafluoropropyl)-1H-pyrazol-4-yl]-2-(trifluoromethyl)-4H-pyrido[1,2-a]pyrimidin-4-one]
10 | 0.12 | CNC(=O)c1ccn2c(=O)c(-c3ccc(OCC(F)(F)F)cc3)c(C(F)(F)F)nc2c1 [Example 12-1, N-Methyl-4-oxo-3-(4-(2,2,2-trifluoroethoxy)phenyl)-2-(trifluoromethyl)-4H-pyrido[1,2-a]pyrimidine-8-carboxamide]
11 | 0.0134 | O=c1c(-c2cnn(CC(F)(F)C(F)(F)F)c2)c(C(F)(F)F)nc2cnc(Cl)cn12 [Example 39-35, 7-chloro-3-[1-(2,2,3,3,3-pentafluoropropyl)-1H-pyrazol-4-yl]-2-(trifluoromethyl)-4H-pyrazino[1,2-a]pyrimidin-4-one]
12 | 1.07 | O=c1c(-c2cnn(CCC(F)(F)F)c2)c(C(F)(F)F)nc2n1CCOC2 [Example 39-38, 2-(trifluoromethyl)-3-[1-(3,3,3-trifluoropropyl)-1H-pyrazol-4-yl]-4H,6H,7H,9H-pyrimido[2,1-c][1,4]oxazin-4-one]
13 | 0.0884 | O=c1c(-c2ccc(OCC(F)(F)F)cc2)c(C(F)(F)F)nc2cc(F)ccn12 [Example 2-3, 8-fluoro-3-(4-(2,2,2-trifluoroethoxy)phenyl)-2-(trifluoromethyl)-4H-pyrido[1,2-a]pyrimidin-4-one]
